Measurements as given in patent US20260256747A1, “ARYL-TRIAZOLYL AND RELATED GPR84 ANTAGONISTS AND USES THEREOF” (Liminal BioSciences Limited, priority 2022, published 2026).

Molecular target: T1, human GPR84 receptor (Homo sapiens, UniProt Q9NQS5)
T1 construct: host or cells: HEK293 cells, transient transfection
Test: Gαi biosensor BRET assay in HEK293 cells transfected with GPR84, stimulated with the GPR84 agonist ZQ-16
Assay type: cell-based
Conditions: 200 nmol/L ZQ-16; for inhibition at 2 µM / inhibition at 10 µM: HEK293, single concentration; for inhibition at 2 µM: concentration class A = 2 μM; for inhibition at 10 µM: concentration class F = 10 μM
Excerpt: Background—The following assays can be used for determination of GPR84 activation in living HEK293 cells. The Gαi BRET biosensor (Gagnon et al., 2018; Gales et al., 2006. Nat Struct Mol Biol. 13, 778-86; Saulieres et al., 2012. Nat Chem Biol. 8, 622-30) allows to directly monitor GPR84-mediated activation of Gαi. The Gαi biosensor consists of a Rluc8-tagged Gαi2 subunit, a GFP10-tagged Gγ2 subunit, and an untagged GB1. Agonist stimulation and GPR84 activation triggers a physical separation between the RLuc8-Gαi donor and the GFP10-Gγ2 acceptor, resulting in a decrease in BRET signal whose amplitude is correlated to ligand efficacy (Gales et al., 2006). Moreover, signaling functions of GPCRs are tightly regulated by endocytosis, the targeting of receptors to endosomes and their sorting to lysosomes or recycling to the plasma membrane. The early endosomes (EEs) trafficking assay (Namkung et al., 2016. Nat Commun. 7, 12178) uses Rluc8-tagged GPR84 and Renilla GFP (rGFP) attached to the FYVE domain from human endofin/zinc finger FYVE domain-containing protein 16, which binds phosphatidylinositol 3-phosphate in EEs. Agonist stimulation of GPR84-Rluc8 leads to trafficking of the receptor to EEs, and ensuing increase of the donor concentration relative to the rGFP-FYVE acceptor anchored in the same cellular compartment, and thus results in an increase in BRET signal.
Plasmids—The cDNA clones for human GPR84 receptor, human Gαi2, Gβ1, and Gγ2 were obtained from the cDNA Resource Center (www.cdna.org). GFP10 (F64L, S147P, S202F and H231L variant of Aequorea victoria Green Fluorescent Protein) gBlocks gene fragments (Integrated DNA Technologies, IA) and linker were inserted in frame at the N-terminus of human Gγ2. Rluc8 (A^55T, Cl24A, S130A, K136R, A^143M, M185V, M253L, and S287L variant of the Renilla reniformis luciferase) gBlocks gene fragment was inserted with linkers in frame in between residues 91 and 92 of Gαi2 or at the C-terminus of GPR84. The FYVE domain from human endofin (residues Q739 to K806) attached in frame at the C terminus of a humanized Renilla GFP (rGFP), were synthesized as gBlocks gene fragments.
Bioluminescence Resonance Energy Transfer (BRET) Measurement-HEK293 cells were transfected with GPR84-Rluc8 and rGFP-FYVE for the EEs trafficking biosensor or with GPR84, Gαi2-Rluc8, GFP10-Gγ2, and Gβ1 for the Gαi biosensor. The following day, transiently transfected cells were seeded in 96-well white clear bottom microplates coated with poly-D-lysine and left in culture for 24 hours. Cells were washed once with Tyrode's buffer (140 mmol/L NaCl, 1 mmol/L CaCl2, 2.7 mmol/L KCl, 0.49 mmol/L MgCl2, 0.37 mmol/L NaH2PO4, 5.6 mmol/L glucose, 12 mmol/L NaHCO3, and 25 mmol/L HEPES, pH 7.5) before performing assays in Tyrode's buffer. Test compounds were incubated with cells for 5 (Gai) or 15 (EEs) minutes at 37° C. before addition of 200 nmol/L of the GPR84 agonist ZQ-16 (2-(Hexylthio)-6-hydroxy-4 (3H)-pyrimidinone) for 5 minutes at room temperature (Gai) or 30 minutes at 37° C. (EEs). The Rluc8 substrate coelenterazine 400A (Prolume, Lakeside, AZ) was added at a final concentration of 5 μmol/L and BRET readings were collected using an Infinite M1000 microplate reader (Tecan, Morrisville, NC). BRET2 readings between Rluc8 and GFP10 or rGFP were collected by sequential integration of the signals detected in the 370 to 450 nm (Rluc8) and 510 to 540 nm (GFP10, rGFP) windows. The BRET signal was calculated as the ratio of light emitted by acceptor (GFP10, rGFP) over the light emitted by donor (Rluc8). The values were corrected to net BRET by subtracting the background BRET signal obtained in cells transfected with Rluc8 constructs alone. Ligand-promoted net BRET values were calculated by subtracting vehicle-induced net BRET from ligand-induced net BRET.

T1 sequence (Q9NQS5 whole entry): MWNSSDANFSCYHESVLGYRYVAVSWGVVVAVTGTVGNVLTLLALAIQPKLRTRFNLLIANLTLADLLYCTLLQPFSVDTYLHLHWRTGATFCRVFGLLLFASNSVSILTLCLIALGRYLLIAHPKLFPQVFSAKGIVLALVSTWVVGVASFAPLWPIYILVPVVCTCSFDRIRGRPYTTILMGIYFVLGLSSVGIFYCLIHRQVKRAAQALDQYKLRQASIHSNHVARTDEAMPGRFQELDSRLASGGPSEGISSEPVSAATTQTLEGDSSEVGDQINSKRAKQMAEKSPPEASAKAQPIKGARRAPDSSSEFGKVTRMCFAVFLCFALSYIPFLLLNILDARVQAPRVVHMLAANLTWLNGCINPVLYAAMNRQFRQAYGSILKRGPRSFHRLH

Compound: C(#CC1CC1)c1cnc(-c2cnn(CC3OCC4(CC4)CO3)c2)c(OC2CC2)c1 [Compound I-218]
- IC50: 300 to 1000 nM
- inhibition at 2 µM: > 75%

Compound: Cc1cc(C#CC2CC2)ccc1-c1nnc(-c2cn(CC3OCC4(CC4)CO3)nn2)o1 [Compound I-220]
- IC50: 300 to 1000 nM
- inhibition at 10 µM: > 75%

Compound: CCCOc1cc(C#CC2CC2)cnc1-c1cn(CC(=O)N(C)C)nn1 [Compound I-221]
- inhibition at 10 µM: 50 to 75%

Compound: Cn1nnnc1-c1cnc(-c2cn(CC3OCC4(CC4)CO3)nn2)c(OC2CC2)c1 [Compound I-222]
- inhibition at 10 µM: ≤ 25%

Compound: Cn1nnc(-c2cnc(-c3cn(CC4OCC5(CC5)CO4)nn3)c(OC3CC3)c2)n1 [Compound I-223]
- IC50: ≤ 300 nM
- inhibition at 2 µM: > 75%

Compound: c1nc(-c2cn(CC3OCC4(CC4)CO3)nn2)c(OC2CC2)cc1-c1cnn[nH]1 [Compound I-224]
- IC50: ≤ 300 nM
- inhibition at 2 µM: > 75%

Compound: Cn1nncc1-c1cnc(-c2cn(CC3OCC4(CC4)CO3)nn2)c(OC2CC2)c1 [Compound I-225]
- inhibition at 10 µM: 50 to 75%

Compound: Cn1ncc(-c2cnc(-c3cn(CC4OCC5(CC5)CO4)nn3)c(OC3CC3)c2)n1 [Compound I-226]
- IC50: ≤ 300 nM
- inhibition at 2 µM: > 75%

Compound: Cn1cc(-c2cnc(-c3cn(CC4OCC5(CC5)CO4)nn3)c(OC3CC3)c2)nn1 [Compound I-227]
- IC50: ≤ 300 nM
- inhibition at 2 µM: > 75%

Compound: c1ncc(-c2cnc(-c3cn(CC4OCC5(CC5)CO4)nn3)c(OC3CC3)c2)[nH]1 [Compound I-228]
- IC50: ≤ 300 nM
- inhibition at 2 µM: > 75%

Compound: c1c[nH]c(-c2cnc(-c3cn(CC4OCC5(CC5)CO4)nn3)c(OC3CC3)c2)n1 [Compound I-229]
- inhibition at 10 µM: ≤ 25%

Compound: Cn1cncc1-c1cnc(-c2cn(CC3OCC4(CC4)CO3)nn2)c(OC2CC2)c1 [Compound I-230]
- inhibition at 10 µM: 50 to 75%

Compound: CN(C)C(=O)CN(C)c1cnc(-c2cn(CC3OCC4(CC4)CO3)nn2)c(OC2CC2)c1 [Compound I-231]
- inhibition at 10 µM: ≤ 25%

Compound: CN(C)C(=O)Cn1cc(-c2ncc(-c3nnn[nH]3)cc2OC2CC2)nn1 [Compound I-232]
- inhibition at 10 µM: 50 to 75%

Compound: O=C(Cn1cc(-c2ncc(-c3nnn[nH]3)cc2OC2CC2)nn1)N1CCCC1 [Compound I-233]
- inhibition at 10 µM: 25 to 50%

Compound: C(#CC1CC1)Cn1cc(-c2ncc(-c3nnn[nH]3)cc2OC2CC2)nn1 [Compound I-234]
- inhibition at 10 µM: > 75%

Compound: c1cc(-c2cnc(-c3cn(CC4OCC5(CC5)CO4)nn3)c(OC3CC3)c2)n[nH]1 [Compound I-235]
- IC50: ≤ 300 nM
- inhibition at 2 µM: > 75%

Compound: c1n[nH]cc1-c1cnc(-c2cn(CC3OCC4(CC4)CO3)nn2)c(OC2CC2)c1 [Compound I-236]
- IC50: 300 to 1000 nM
- inhibition at 10 µM: > 75%

Compound: Cn1nccc1-c1cnc(-c2cn(CC3OCC4(CC4)CO3)nn2)c(OC2CC2)c1 [Compound I-237]
- inhibition at 10 µM: 50 to 75%

Compound: Cn1ccc(-c2cnc(-c3cn(CC4OCC5(CC5)CO4)nn3)c(OC3CC3)c2)n1 [Compound I-238]
- IC50: ≤ 300 nM
- inhibition at 2 µM: > 75%

Compound: Cn1cc(-c2cnc(-c3cn(CC4OCC5(CC5)CO4)nn3)c(OC3CC3)c2)cn1 [Compound I-239]
- IC50: ≤ 300 nM
- inhibition at 10 µM: > 75%

Compound: CN(C)C(=O)Cn1cc(-c2ncc(C#N)cc2OC2CC2)nn1 [Compound I-240]
- inhibition at 10 µM: ≤ 25%

Compound: N#Cc1cnc(-c2cn(CC(=O)N3CCCC3)nn2)c(OC2CC2)c1 [Compound I-241]
- inhibition at 10 µM: 25 to 50%

Compound: O=C(Cn1cnc(-c2ncc(C#CC3CC3)cc2OC2CC2)c1)N1CCCC1 [Compound I-242]
- inhibition at 10 µM: 50 to 75%

Compound: O=C(Cn1cncc1-c1ncc(C#CC2CC2)cc1OC1CC1)N1CCCC1 [Compound I-243]
- inhibition at 10 µM: ≤ 25%

Compound: O=C(Cn1cc(-c2ncc(C#CC3CC3)cc2OC2CC2)nn1)N1CC[C@H](O)C1 [Compound I-244]
- IC50: 1000 to 3000 nM
- inhibition at 10 µM: > 75%

Compound: O=C(Cn1cc(-c2ncc(C#CC3CC3)cc2OC2CC2)nn1)N1CC[C@@H](O)C1 [Compound I-245]
- IC50: 1000 to 3000 nM
- inhibition at 10 µM: > 75%

Compound: O=C(Cn1cc(-c2ncc(C#CC3CC3)cc2OC2CC2)nn1)N1C[C@@H](O)[C@H](O)C1 [Compound I-246]
- inhibition at 10 µM: 50 to 75%

Compound: O=C(Cn1cc(-c2ncc(C#CC3CC3)cc2OC2CC2)nn1)N1C[C@H](O)[C@@H](O)C1 [Compound I-247]
- inhibition at 10 µM: > 75%

Compound: O=C(Cn1cc(-c2ncc(C#CC3CC3)cc2OC2CC2)nn1)N1C[C@@H](O)[C@@H](O)C1 [Compound I-248]
- inhibition at 10 µM: > 75%

Compound: O=C(Cn1cc(-c2nc(O)c(C#CC3CC3)cc2OC2CC2)nn1)N1CCCC1 [Compound I-249]
- inhibition at 2 µM: ≤ 25%

Compound: O=C(Cn1cc(-c2ncc(C#CC3(O)CC3)cc2OC2CC2)nn1)N1CCCC1 [Compound I-250]
- inhibition at 10 µM: > 75%

Compound: CN(C)C(=O)Cn1cc(-c2nc(O)c(C#CC3CC3)cc2OC2CC2)nn1 [Compound I-251]
- inhibition at 2 µM: ≤ 25%

Compound: CN(C)C(=O)Cn1cc(-c2ncc(C#CC3(O)CC3)cc2OC2CC2)nn1 [Compound I-252]
- inhibition at 10 µM: > 75%

Compound: O=C(Cn1cc(-c2c(OC3CC3)cc(C#CC3CC3)c[n+]2[O-])nn1)N1CCCC1 [Compound I-253]
- IC50: 1000 to 3000 nM
- inhibition at 10 µM: > 75%

Compound: C(#CC1CC1)c1ccc(-c2nnc(-c3cn(CC4OCC5(CC5)CO4)nn3)o2)cc1 [Compound I-254]
- inhibition at 10 µM: 25 to 50%

Compound: Cc1ccc(C#CC2CC2)cc1-c1nnc(-c2cn(CC3OCC4(CC4)CO3)nn2)o1 [Compound I-255]
- inhibition at 10 µM: 50 to 75%

Compound: Cc1cc(C#CC2CC2)cnc1-c1nnc(-c2cn(CC3OCC4(CC4)CO3)nn2)o1 [Compound I-256]
- inhibition at 10 µM: ≤ 25%

Compound: Fc1cc(C#CC2CC2)ccc1-c1nnc(-c2cn(CC3OCC4(CC4)CO3)nn2)o1 [Compound I-257]
- inhibition at 10 µM: > 75%

Compound: Fc1ccc(C#CC2CC2)cc1-c1nnc(-c2cn(CC3OCC4(CC4)CO3)nn2)o1 [Compound I-258]
- inhibition at 10 µM: 25 to 50%

Compound: Cc1cc(C#CC2CC2)ccc1-c1nnc(-c2cn(CC(=O)N(C)C)nn2)o1 [Compound I-259]
- inhibition at 10 µM: ≤ 25%

Compound: Cc1ccc(C#CC2CC2)cc1-c1nnc(-c2cn(CC(=O)N(C)C)nn2)o1 [Compound I-260]
- inhibition at 10 µM: ≤ 25%

Compound: CN(C)C(=O)Cn1cc(-c2nnc(-c3ccc(C#CC4CC4)cc3F)o2)nn1 [Compound I-261]
- inhibition at 10 µM: ≤ 25%

Compound: CN(C)C(=O)Cn1cc(-c2nnc(-c3cc(C#CC4CC4)ccc3F)o2)nn1 [Compound I-262]
- inhibition at 10 µM: ≤ 25%

Compound: Cc1ccc(C#CC2CC2)cc1C(F)(F)c1cn(CC(=O)N(C)C)nn1 [Compound I-263]
- inhibition at 2 µM: 25 to 50%

Compound: Cc1ccc(C#CC2CC2)cc1C(F)(F)c1cn(CC2OCC3(CC3)CO2)nn1 [Compound I-264]
- inhibition at 2 µM: > 75%

Compound: N=C(N)c1cnc(-c2cn(CC3OCC4(CC4)CO3)nn2)c(OC2CC2)c1 [Compound I-265]
- inhibition at 10 µM: 25 to 50%

Compound: CN1CCN(C(=O)Cn2cc(-c3ncc(C#CC4CC4)cc3OC3CC3)nn2)CC1 [Compound I-266]
- inhibition at 10 µM: 25 to 50%

Compound: O=C(Cn1cc(-c2ncc(C#CC3CC3)cc2OC2CC2)nn1)N1CCCCC1 [Compound I-267]
- inhibition at 10 µM: > 75%

Compound: O=C(Cn1cc(-c2ncc(C#CC3CC3)cc2OC2CC2)nn1)N1CCOCC1 [Compound I-268]
- inhibition at 10 µM: 25 to 50%
